Laboratory results from patent publication US20220296583A1, “COMPOSITIONS AND METHODS FOR TREATMENT OF OVARIAN AND BREAST CANCER” (Board of Regents, The University of Texas System, priority 2021, published 2022).

Tests used:
[1] = test system: OVCAR8, SKOv3, OC316, OVCAR3, ES2, A2780, MDA2774, and IGROV1 cells; assay: Short term cell proliferation (CellTiter-Glo), eight ovarian cancer cell lines; assay type: cell-based, human; conditions: single concentration of Compound B 0.75-1.25 μM; p<0.01
Protocol: Cells were seeded in 6 replicates in black-walled and clear-bottomed 96-well plates and incubated overnight. […] The CellTiter-Glo luminescent cell viability assay (Promega) was used to evaluate the effect of treatment on cancer growth. This experiment was performed several times to optimize the concentration. […] GraphPad Prism 8 was used to generate growth curves and calculated IC50. CalcuSyn was used to evaluate additive or synergistic interactions, a combination Index (CI value).

[2] = test system: MDA-MB-231 xenograft; assay: MDA-MB-231 mammary fat pad xenograft, Compound B and olaparib; assay type: in vivo, mice; conditions: 50 mg/kg, oral, 5 weeks
Protocol: Forty female nu/nu mice were injected with 0.8×10^6 MDA-MB-231 cells into their fourth mammary fat pads. […] Tumors were measured every week as noted above (SKOv3 xenograft models).

[3] = test system: MDA-MB-231 orthotopic xenografts; assay: MDA-MB-231 orthotopic xenografts; assay type: in vivo, mice
Protocol: To evaluate additive or synergistic interactions, a combination Index (CI value) was calculated with CalcuSyn software.

[4] = test system: SKOv3, OVCAR8, HCC5032, or MDA-MB-231 cells; assay: DNA damage: γ-H2AX staining and comet assay with olaparib; assay type: cell-based; conditions: SKOv3, OVCAR8, HCC5032, MDA-MB-231
Protocol: Cells were trypsinized and resuspended at 2×10^5/mL in cold PBS without Ca^2+ and Mg^2+. Cells were mixed with pre-warmed comet agarose at 1:10 (v/v) ratio. 10 uL of cell agarose mixture was plated onto comet slides pre-coated with 75 uL of agarose and chilled at 4° C. for 15 min to set. Cells were lysed in 25 mL of Lysis buffer at 4° C. for 2 hrs and washed with alkaline solution (pH 10). Comet slides were electrophoresed in cold alkaline solution at 20V for 15 min. Slides were rinsed with water and dried in 70% ethanol for 5 min. Slides were then stained with Vista Green DNA dye and viewed using an Olympus epifluorescence microscope with a FITC filter. Images were captured using a 20× objective. […] Experiments were run in triplicate and Olive Tail Moment was measured using CaspLab1.2.3β2 software (CaspLab.com). Olive Tail Moment=Tail DNA %×Tail Length. 50-200 Cells were measured for each treatment and experiments were repeated twice independently to ensure reproducibility.
Cells on 22×22 mm coverslips were fixed in 4% formaldehyde in PBS (Thermo Fisher, J19943-K2) and permeabilized with 0.1% Triton X-100 (Sigma, X100) in PBS for 15 min. Cells were blocked with 5% BSA in PBS for 30 min and then stained with antibody overnight at 4° C., followed by secondary antibody and DAPI for 1 hr. […] After 24-hrs incubation, cells were fixed in 4% formaldehyde in PBS. Cells were stained as described above. […] DNA damage visualized by γ-H2AX staining was evaluated by counting nuclear γ-H2AX puncta in each cell. […] After 8 hrs incubation, cells were fixed in 4% formaldehyde in PBS. Cells were stained as described above. Images were captured using an Olympus IX71 microscope and nuclear γ-H2AX puncta in each cells were counted using with Olympus CellSens Dimension software. HDAC5 (CST20458) and γ-H2AX (CST2577) antibodies were purchased from Cell Signaling Technology. Experiments were repeated twice independently to ensure reproducibility and 50-200 cells were counted for each treatment.

[5] = test system: OVCAR8, SKOv3, and OC316 ovarian cancer cell lines; assay: Annexin V/PI apoptosis, Compound B and carboplatin; assay type: cell-based; conditions: 72 h; flow cytometry
Protocol: Cells were dislodged and stained with Annexin V antibody and PI dye for flow cytometry. Representative images are shown on the left and the analysis of apoptotic population under different treatment conditions are on the right. (B) Effect of SIK2 knockout on carboplatin-induced apoptosis. SIK2 knockout (KO) and control cell lines were treated as in (A) and analyzed for apoptosis. The bars indicate the mean percentage of apoptotic cells with standard deviations.
After completion of incubation, cells were harvested and washed with PBS two times. After washing, cells were re-suspended in 100 μL Annexin-binding buffer containing propidium iodide (PI) and FITC Annexin-V (Invitrogen) and incubated at ambient temperature for 15 min in the dark. After incubation, 200 μL of Annexin-binding buffer was added and stained cells were analyzed using a Beckman Coulter's Gallios Flow Cytometer.
Many current cancer chemotherapies, including platinum-based drugs, exert their antitumor effect by triggering apoptosis in cancer cells. […] The inhibitor of apoptosis protein family (IAPs) includes an important group of proteins involved in the regulation of apoptosis. One member of this protein family, survivin, plays an important role in promoting tumor progression by deregulating apoptosis and cell division.

## COc1c(F)cc(F)cc1-c1c[nH]c2ncc(-c3cnn(C4CCN(S(C)(=O)=O)CC4)c3)cc12 [Compound B, 3-(3,5-difluoro-2-methoxyphenyl)-5-(1-(1-(methylsulfonyl)piperidin-4-yl)-1H-pyrazol-4-yl)-1H-pyrrolo[2,3-b]pyridine]
[1]
  carboplatin dose response curve when Compound B was added: shifted to the left in seven of eight ovarian cancer cell lines
[2]
  tumor burden / tumor volume: remained unchanged
[3]
  xenograft growth and survival: inhibited xenograft growth and prolonged the survival
[4]
  levels of γ-H2AX and tailed DNA: modestly increased
[5]
  apoptosis: induced apoptosis as a single agent, but also enhanced carboplatin-induced apoptosis
